The values that follow come from paper PMC3500438 (Organic letters, 2012).

pIC50, pKi: −log10 of the molar value. Entries after “also recorded” stand apart in the source; their conditions may differ.

The test system of one data set is rat PDE4 (Rolipram). Put plainly: rat Rolipram radioligand binding. The arrangement: species or system Wistar rat. The settings on record: for pIC50: read-out: rat Rolipram IC50; for pIC50 / pKi: Wistar rat brain, 1.8 nM [3H] rolipram, 1% DMSO, 60 min at 4 °C, 50 mM Tris-HCl, pH 7.4; for pKi: read-out: rat Rolipram Ki.
The subject of data set [1] is 97 kinases (both wild-type and mutants). Put plainly: KINOMEscan panel. Format: binding. Particulars: 10 μM.
Another data set deals with 5-HT2B (Homo sapiens, UniProt P41595). The data set can be described thus: Lead Profiling screen radioligand binding, 5-HT2B.
5-HT2B, sequence (P41595 whole entry, species assumed): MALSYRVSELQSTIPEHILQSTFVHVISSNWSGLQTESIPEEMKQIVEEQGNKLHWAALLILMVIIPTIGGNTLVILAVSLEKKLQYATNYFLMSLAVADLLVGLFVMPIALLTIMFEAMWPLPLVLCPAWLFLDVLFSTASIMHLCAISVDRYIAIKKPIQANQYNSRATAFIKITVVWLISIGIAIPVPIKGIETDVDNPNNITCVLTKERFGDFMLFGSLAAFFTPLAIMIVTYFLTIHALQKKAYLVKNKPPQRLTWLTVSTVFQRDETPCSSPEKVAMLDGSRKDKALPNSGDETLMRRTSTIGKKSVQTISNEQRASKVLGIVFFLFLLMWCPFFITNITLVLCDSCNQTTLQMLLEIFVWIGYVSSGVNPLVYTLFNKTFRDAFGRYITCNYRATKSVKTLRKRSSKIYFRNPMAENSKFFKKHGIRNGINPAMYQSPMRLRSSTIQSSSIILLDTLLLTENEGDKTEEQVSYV
In data set [2] the test system is 68 GPCRs, ion channels and transporters. Put plainly: Lead Profiling screen. Particulars: 10 μM, 68 targets. Format: binding.
For data set [3] the following is noted: cited from earlier work.
Another data set deals with healthy cells. The settings on record: cited from earlier work.

A word on the pIC50: it is the IC50 on a negative log10 scale, so that one unit is a factor of ten. A word on the pKi: it is the Ki on a negative log10 scale, so that one unit is a factor of ten. As for `Nc1ncnc2c1ncn2Cc1nc2ccccc2c2cc[nH]c12` [compound 6, aplidiopsamine A], in the data set on rat PDE4 (Rolipram) (10 μM), the “PDE4/Rolipram activity in radioligand binding panel” value came out at 74%. Moreover, on rat PDE4 (Rolipram), the pIC50 was 5.48 and the negative logarithm of the Ki (pKi) is 5.92. In data set [1], the “activity in KINOMEscan panel” value is “uniformly inactive”. Besides, the “5-HT2B activity in radioligand binding panel” value at 5-HT2B (10 μM) is 62%. The pKi on 5-HT2B (read-out: 5-HT2B Ki, full concentration-response-curve) is roughly 5.00. Further, the “ancillary pharmacology in Lead Profiling screen” value in data set [2] is given as “activity at only two targets”. Also, the antimalarial activity entry in data set [3] is “potent antimalarial agent”. Moreover, the “toxicity to healthy cells / cytotoxicity” value in the data set with healthy cells was “without toxicity to healthy cells; also recorded: not be cytotoxic”.

`Cc1nc2ccccc2c2cc[nH]c12` [compound 1, marinoquinoline A]: the “PDE4 activity (in words)” value in the data set with rat PDE4 (Rolipram) (rat PDE4 (Rolipram) and human PDE4) was “inactive”. Besides, at rat PDE4 (Rolipram), the pIC50 is less than 4.00 and the pKi is less than 4.00.
